# Assay results taken from patent US20250312296A1, “PETROLATUM-BASED PHMB COMPOSITIONS AND METHODS FOR THE TREATMENT OF INFLAMMATORY SKIN DISEASE” (GLOBAL HEALTH SOLUTIONS, INC., priority 2020, published 2025).
# “And” between values parts separate entries of the source, which are not always exact repeats. Identical values can stand only once.
# Tested on: Rabbit Skin
# Experiment: Rabbit skin irritation
# Method: Within 24 hours to 4 hours before test application, the backs of female albino New Zealand White rabbits were clipped free of hair, exposing 2 test and 2 control areas on each side of the spine with a size of approximately 15 cm×15 cm. The two test sites are located on the left cranial section and the right caudal section of the dorsal region. The two control sites are located on the left caudal and right cranial section of the dorsal region. FIG. 4 depicts the arrangement of test and control sites. The exposed skin is wiped with alcohol and dried. Rabbits of acceptable skin quality were selected and used for testing.
# A 25×25 mm gauze patch saturated with 0.5 mL of 0.9% NaCl is used for the control and applied to the clipped control sites. The patches are secured using hypoallergenic, waterproof, surgical tape over the test and control sites. The animal's trunk is securely wrapped so as to maintain the position of the patches. Patches are left applied for a minimum of four hours.
# After patch removal, the test and control sites were then scored for erythema and edema at 1, 24, 48 and 72 hours after patch removal. Only the 24, 48, and 72 hour observations were scored and used for calculations. If no response was expected, testing was conducted using three animals per test article. If irritation was anticipated, one animal was tested initially. If the first animal received a score of 2 or less for either erythema or edema, 2 additional rabbits were used to conclude the test.
# This total was divided by the total number of observations. The same was done for the control sites. […] These scores for each animal were added and divided by the total number of animals to give the Primary Irritation Index. […] For any response, the Maximum Irritation Response, the time of onset of the response and the time of maximum response was recorded.
# To positively validate the test, 10% sodium dodecyl sulfate (SDS), which is a known dermal irritant, in petroleum jelly was applied to a 2.5 cm×2.5 cm gauze patch. As a negative control, 0.5 mL of 0.9% NaCl was applied to a 2.5 cm×2.5 cm gauze patch. A Primary Irritation Index in the moderate to severe range is considered a positive result. The test system and methods utilized were the same as described above.
# [1] = per rabbit, scores of 24, 48 and 72 hour observations added, patch at least four hours, sulfate
structure (smiles),measurement,setting,value
"CCCCCCCCCCCCOS(=O)(=O)[O-].[Na+] [10% SDS, sodium dodecyl sulfate]",Primary Irritation Index,"3 animals, 0-0.4 Negligible, 0.5-1.9 Slight, 2-4.9 Moderate, 5-8 Severe",Total Average (19.3) = 6.4 Primary Irritation Index
same,ED (edema) score,[1],19 and 21 and 14
same,ER (erythema) score,[1],21 and 23 and 18
same,ER + ED = Total,"per rabbit, scores of 24, 48 and 72 hour observations added, sulfate",40 and 44 and 32
